Results from PubChem BioAssay (NCI).
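Method: 48-hour compound exposure of cells in 96-well plates, five concentrations, linear interpolation of endpoints. GI50 marks 50% less growth. TGI: concentration producing complete growth inhibition.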

Experiments:
Assay in all cases: NCI-60 cell line screen, 48 h; in the data active = GI50 below about 0.43 µM; inactive = the rest
786-0 renal = test system: 786-0 renal
A498 renal = test system: A498 renal
A549 NSCLC = test system: A549 NSCLC
ACHN renal = test system: ACHN renal
BT-549 breast = test system: BT-549 breast
CAKI-1 renal = test system: CAKI-1 renal
CCRF-CEM leukemia = test system: CCRF-CEM leukemia
COLO 205 colon = test system: COLO 205 colon
DU-145 prostate = test system: DU-145 prostate
HCT-116 colon = test system: HCT-116 colon
HCT-15 colon = test system: HCT-15 colon
HL-60(TB) leukemia = test system: HL-60(TB) leukemia
HOP-62 NSCLC = test system: HOP-62 NSCLC
HS 578T breast = test system: HS 578T breast
HT29 colon = test system: HT29 colon
IGROV1 ovarian = test system: IGROV1 ovarian
K-562 leukemia = test system: K-562 leukemia
KM12 colon = test system: KM12 colon
LOX IMVI melanoma = test system: LOX IMVI melanoma
M14 melanoma = test system: M14 melanoma
MCF7 breast = test system: MCF7 breast
MDA-MB-231 breast = test system: MDA-MB-231 breast
MDA-MB-435 = test system: MDA-MB-435
MOLT-4 leukemia = test system: MOLT-4 leukemia
NCI-H226 lung = test system: NCI-H226 lung
NCI-H23 lung = test system: NCI-H23 lung
NCI-H460 lung = test system: NCI-H460 lung
NCI-H522 lung = test system: NCI-H522 lung
NCI/ADR-RES ovarian = test system: NCI/ADR-RES ovarian
OVCAR-3 ovarian = test system: OVCAR-3 ovarian
OVCAR-4 ovarian = test system: OVCAR-4 ovarian
OVCAR-5 ovarian = test system: OVCAR-5 ovarian
OVCAR-8 ovarian = test system: OVCAR-8 ovarian
PC-3 prostate = test system: PC-3 prostate
RPMI-8226 leukemia = test system: RPMI-8226 leukemia
SF-268 CNS = test system: SF-268 CNS
SF-295 CNS = test system: SF-295 CNS
SF-539 CNS = test system: SF-539 CNS
SK-MEL-2 melanoma = test system: SK-MEL-2 melanoma
SK-MEL-28 melanoma = test system: SK-MEL-28 melanoma
SK-MEL-5 melanoma = test system: SK-MEL-5 melanoma
SK-OV-3 ovarian = test system: SK-OV-3 ovarian
SN12C renal = test system: SN12C renal
SNB-19 CNS = test system: SNB-19 CNS
SNB-75 CNS = test system: SNB-75 CNS
SR leukemia = test system: SR leukemia
SW-620 colon = test system: SW-620 colon
T-47D breast = test system: T-47D breast
U251 CNS = test system: U251 CNS
UACC-257 melanoma = test system: UACC-257 melanoma
UO-31 renal = test system: UO-31 renal
EKVX NSCLC = test system: EKVX NSCLC
HCC-2998 colon = test system: HCC-2998 colon
RXF 393 renal = test system: RXF 393 renal
TK-10 renal = test system: TK-10 renal
UACC-62 melanoma = test system: UACC-62 melanoma

Oc1ccc(Br)cc1Sc1cc(Br)ccc1O
36.3 µM: TGI (IGROV1 ovarian)
17.7 µM: TGI (SK-MEL-2 melanoma) | TGI (T-47D breast) | TGI (UACC-257 melanoma)
15.6 µM: TGI (RPMI-8226 leukemia)
inactive: GI50 (786-0 renal) 18.6 µM | GI50 (A498 renal) 15.5 µM | GI50 (A549 NSCLC) 5.09 µM | GI50 (ACHN renal) 6.4 µM | GI50 (BT-549 breast) 8.46 µM | GI50 (CAKI-1 renal) 18.7 µM | GI50 (CCRF-CEM leukemia) 5.25 µM | GI50 (COLO 205 colon) 17.8 µM | GI50 (DU-145 prostate) 11.7 µM | GI50 (HCT-116 colon) 6 µM | GI50 (HCT-15 colon) 5.93 µM | GI50 (HL-60(TB) leukemia) 4.98 µM | GI50 (HOP-62 NSCLC) 13.6 µM | GI50 (HS 578T breast) 4.28 µM | GI50 (HT29 colon) 19 µM | GI50 (IGROV1 ovarian) 15.7 µM | GI50 (K-562 leukemia) 5.12 µM | GI50 (KM12 colon) 17 µM | GI50 (LOX IMVI melanoma) 4.89 µM | GI50 (M14 melanoma) 10.7 µM | GI50 (MCF7 breast) 11.2 µM | GI50 (MDA-MB-231 breast) 6.58 µM | GI50 (MDA-MB-435) 5.23 µM | GI50 (MOLT-4 leukemia) 7.37 µM | GI50 (NCI-H226 lung) 18.1 µM | GI50 (NCI-H23 lung) 3.14 µM | GI50 (NCI-H460 lung) 5.1 µM | GI50 (NCI-H522 lung) 2.69 µM | GI50 (NCI/ADR-RES ovarian) 5.06 µM | GI50 (OVCAR-3 ovarian) 4.98 µM | GI50 (OVCAR-4 ovarian) 4.72 µM | GI50 (OVCAR-5 ovarian) 15.8 µM | GI50 (OVCAR-8 ovarian) 5.89 µM | GI50 (PC-3 prostate) 10.6 µM | GI50 (RPMI-8226 leukemia) 3.18 µM | GI50 (SF-268 CNS) 7.68 µM | GI50 (SF-295 CNS) 14.4 µM | GI50 (SF-539 CNS) 4.66 µM | GI50 (SK-MEL-2 melanoma) 5.62 µM | GI50 (SK-MEL-28 melanoma) 4.78 µM | GI50 (SK-MEL-5 melanoma) 3.16 µM | GI50 (SK-OV-3 ovarian) 14.9 µM | GI50 (SN12C renal) 3.89 µM | GI50 (SNB-19 CNS) 4.88 µM | GI50 (SNB-75 CNS) 4.29 µM | GI50 (SR leukemia) 5.39 µM | GI50 (SW-620 colon) 9.29 µM | GI50 (T-47D breast) 4.36 µM | GI50 (U251 CNS) 4.42 µM | GI50 (UACC-257 melanoma) 5.2 µM | GI50 (UO-31 renal) 5 µM
18 µM: TGI (OVCAR-3 ovarian)
31.1 µM: TGI (A498 renal)
30 µM: TGI (MCF7 breast)
45.5 µM: TGI (CAKI-1 renal)
20 µM: TGI (NCI-H460 lung)
24.8 µM: TGI (CCRF-CEM leukemia)
28.4 µM: TGI (DU-145 prostate)
33.3 µM: TGI (KM12 colon)
32.1 µM: TGI (OVCAR-5 ovarian)
23 µM: TGI (BT-549 breast)
8.46 µM: TGI (NCI-H522 lung)
11.8 µM: TGI (NCI-H23 lung)
19.8 µM: TGI (MDA-MB-435)
26.7 µM: TGI (SF-268 CNS)
25.2 µM: TGI (SNB-19 CNS)
19.6 µM: TGI (UO-31 renal)
29.4 µM: TGI (PC-3 prostate)
25.8 µM: TGI (HS 578T breast)
18.4 µM: TGI (U251 CNS)
20.8 µM: TGI (ACHN renal)
38.4 µM: TGI (MOLT-4 leukemia)
18.1 µM: TGI (OVCAR-4 ovarian)
11.6 µM: TGI (SK-MEL-5 melanoma)
41.9 µM: TGI (NCI-H226 lung)
29.7 µM: TGI (SK-OV-3 ovarian)
32 µM: TGI (K-562 leukemia)
25.3 µM: TGI (SR leukemia) | TGI (SW-620 colon)
16.8 µM: TGI (SN12C renal)
22 µM: TGI (A549 NSCLC) | TGI (HCT-15 colon)
24.7 µM: TGI (OVCAR-8 ovarian)
18.7 µM: TGI (SF-539 CNS)
33.5 µM: TGI (SF-295 CNS)
19.7 µM: TGI (SNB-75 CNS)
30.2 µM: TGI (HOP-62 NSCLC)
25 µM: TGI (HL-60(TB) leukemia)
34.1 µM: TGI (HT29 colon)
24.3 µM: TGI (HCT-116 colon) | TGI (NCI/ADR-RES ovarian)
23.2 µM: TGI (MDA-MB-231 breast)
27.9 µM: TGI (M14 melanoma)
35.4 µM: TGI (786-0 renal)
16.6 µM: TGI (SK-MEL-28 melanoma)
34.9 µM: TGI (COLO 205 colon)
17.6 µM: TGI (LOX IMVI melanoma)

CN(C)c1ccc(/C=C2\Oc3cc(O)ccc3C2=O)cc1
> 100 µM: TGI (786-0 renal) | TGI (A549 NSCLC) | TGI (ACHN renal) | TGI (BT-549 breast) | TGI (CAKI-1 renal) | TGI (CCRF-CEM leukemia) | TGI (COLO 205 colon) | TGI (DU-145 prostate) | TGI (EKVX NSCLC) | TGI (HCC-2998 colon) | TGI (HCT-116 colon) | TGI (HCT-15 colon) | TGI (HL-60(TB) leukemia) | TGI (HOP-62 NSCLC) | TGI (HS 578T breast) | TGI (IGROV1 ovarian) | TGI (K-562 leukemia) | TGI (KM12 colon) | TGI (M14 melanoma) | TGI (MCF7 breast) | TGI (MDA-MB-231 breast) | TGI (MDA-MB-435) | TGI (MOLT-4 leukemia) | TGI (NCI-H226 lung) | TGI (NCI-H23 lung) | TGI (NCI-H460 lung) | TGI (NCI-H522 lung) | TGI (NCI/ADR-RES ovarian) | TGI (OVCAR-3 ovarian) | TGI (OVCAR-4 ovarian) | TGI (OVCAR-8 ovarian) | TGI (PC-3 prostate) | TGI (RPMI-8226 leukemia) | TGI (RXF 393 renal) | TGI (SF-268 CNS) | TGI (SF-295 CNS) | TGI (SF-539 CNS) | TGI (SK-MEL-28 melanoma) | TGI (SK-MEL-5 melanoma) | TGI (SK-OV-3 ovarian) | TGI (SN12C renal) | TGI (SNB-19 CNS) | TGI (SNB-75 CNS) | TGI (SR leukemia) | TGI (SW-620 colon) | TGI (T-47D breast) | TGI (TK-10 renal) | TGI (U251 CNS) | TGI (UACC-257 melanoma) | TGI (UACC-62 melanoma) | TGI (UO-31 renal)
